Results from paper PMC4503722, “Novel Phenotypic Outcomes Identified for a Public Collection of Approved Drugs from a Publicly Accessible Panel of Assays” (PLoS ONE, 2015).

How the values were obtained:
RKO = experiment: cells; format: cell-based; details: for IC50/EC50, Basal_Viability ATP RKO (assay number 29): basal
hJAK2 = biological target: T1, hJAK2 (Homo sapiens, UniProt O60674); experiment: Cerep LANCE kinase assay hJAK2 (S1 assay 33); format: biochemical
T1 construct: purchased Cerep (LANCE kinase assay platform, contract assay)

[1] = tested on: ECFC/ADSC co-culture cell nuclei number
HeLa cells = experiment: cells; format: cell-based
hGSK3b = biological target: T2, hGSK3b (Homo sapiens, UniProt P49841); experiment: Cerep LANCE kinase assay hGSK3b (S1 assay 34); format: biochemical
T2 construct: purchased Cerep (LANCE kinase assay platform, contract assay)

hp70S6K1 (RPS6KB1) = biological target: T3, hp70S6K1 (RPS6KB1) (Homo sapiens, UniProt P23443); experiment: Cerep LANCE kinase assay hp70S6K1 (S1 assay 31); format: biochemical
T3 construct: purchased Cerep (LANCE kinase assay platform, contract assay)

Colo320 = experiment: cells; format: cell-based; details: for IC50/EC50, Basal_Viability ATP Colo 320 (assay number 27): basal
SNU-C1 = experiment: cells; format: cell-based; details: for IC50/EC50, Basal_Viability ATP SNU-C1 (assay number 30): basal
HCT116 = experiment: cells; format: cell-based
[2] = tested on: HCT116 cells treated with a GSK3β inhibitor; experiment: cells; format: cell-based; details: for IC50/EC50, GSK3b inh pretreated_Viability ATP HCT116 (assay number 26): GSK3b inh pretreated
SW480 = experiment: cells; format: cell-based; details: for IC50/EC50, Basal_Viability ATP SW480 (assay number 24): basal
DLD-1 = experiment: cells; format: cell-based; details: for IC50/EC50, Basal_Viability ATP DLD-1 (assay number 23): basal
hFLT3 = biological target: T4, hFLT3 (Homo sapiens, UniProt P36888); experiment: Cerep LANCE kinase assay hFLT3 (S1 assay 35); format: biochemical
T4 construct: purchased Cerep (LANCE kinase assay platform, contract assay)

hKDR = biological target: T5, hKDR (Homo sapiens, UniProt P35968); experiment: Cerep LANCE kinase assay hKDR (S1 assay 32); format: biochemical
T5 construct: purchased Cerep (LANCE kinase assay platform, contract assay)

HT-29 = experiment: cells; format: cell-based; details: for IC50/EC50, Basal_Viability ATP HT-29 (assay number 28): basal
[3] = tested on: endothelial tube formation in co-cultures of ECFCs and ADSCs treated with VEGF; experiment: cells; format: cell-based, human
NCI-H716 cells = experiment: cells; format: cell-based, Human; details: Homo sapiens; IC50 / EC50; NCI-H716; read-out: GLP 1 Secretion
INS-1E cells = experiment: cells; format: cell-based, rat; details: Rattus norvegicus; IC50 / EC50; INS-1E; read-out: Insulin Secretion

T5 sequence (P35968 20-1356): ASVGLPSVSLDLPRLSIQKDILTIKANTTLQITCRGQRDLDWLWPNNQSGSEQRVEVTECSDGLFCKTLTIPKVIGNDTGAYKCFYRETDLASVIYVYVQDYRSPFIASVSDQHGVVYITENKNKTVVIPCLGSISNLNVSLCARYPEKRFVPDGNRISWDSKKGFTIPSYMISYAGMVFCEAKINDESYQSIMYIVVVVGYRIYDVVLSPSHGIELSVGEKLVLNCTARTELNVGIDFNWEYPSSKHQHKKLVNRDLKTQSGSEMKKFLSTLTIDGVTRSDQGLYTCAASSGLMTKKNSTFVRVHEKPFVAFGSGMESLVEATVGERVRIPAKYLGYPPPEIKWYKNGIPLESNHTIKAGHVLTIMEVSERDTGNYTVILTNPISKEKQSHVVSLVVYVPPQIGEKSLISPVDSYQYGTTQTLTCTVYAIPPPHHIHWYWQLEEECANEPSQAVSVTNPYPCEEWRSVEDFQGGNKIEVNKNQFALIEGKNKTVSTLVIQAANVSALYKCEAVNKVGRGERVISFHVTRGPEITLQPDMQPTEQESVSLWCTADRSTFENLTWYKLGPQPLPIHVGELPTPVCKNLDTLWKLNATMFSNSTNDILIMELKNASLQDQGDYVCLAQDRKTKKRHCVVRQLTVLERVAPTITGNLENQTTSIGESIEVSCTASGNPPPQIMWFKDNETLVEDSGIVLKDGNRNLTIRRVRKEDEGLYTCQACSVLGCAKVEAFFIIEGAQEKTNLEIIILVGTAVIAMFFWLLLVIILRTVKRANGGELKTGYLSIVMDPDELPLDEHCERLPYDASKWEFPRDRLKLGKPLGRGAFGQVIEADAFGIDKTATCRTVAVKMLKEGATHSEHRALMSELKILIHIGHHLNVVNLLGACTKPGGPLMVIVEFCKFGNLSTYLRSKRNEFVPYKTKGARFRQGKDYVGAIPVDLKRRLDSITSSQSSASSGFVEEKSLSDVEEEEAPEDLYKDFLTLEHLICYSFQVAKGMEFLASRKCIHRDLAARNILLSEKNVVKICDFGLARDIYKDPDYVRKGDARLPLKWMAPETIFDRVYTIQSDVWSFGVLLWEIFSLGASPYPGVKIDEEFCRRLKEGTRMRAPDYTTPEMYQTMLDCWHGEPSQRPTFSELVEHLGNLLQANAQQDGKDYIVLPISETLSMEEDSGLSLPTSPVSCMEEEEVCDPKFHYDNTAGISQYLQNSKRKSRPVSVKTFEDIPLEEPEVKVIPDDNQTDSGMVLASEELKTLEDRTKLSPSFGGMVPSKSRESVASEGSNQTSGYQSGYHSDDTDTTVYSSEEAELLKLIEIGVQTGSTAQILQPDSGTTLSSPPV
T3 sequence (P23443 whole entry): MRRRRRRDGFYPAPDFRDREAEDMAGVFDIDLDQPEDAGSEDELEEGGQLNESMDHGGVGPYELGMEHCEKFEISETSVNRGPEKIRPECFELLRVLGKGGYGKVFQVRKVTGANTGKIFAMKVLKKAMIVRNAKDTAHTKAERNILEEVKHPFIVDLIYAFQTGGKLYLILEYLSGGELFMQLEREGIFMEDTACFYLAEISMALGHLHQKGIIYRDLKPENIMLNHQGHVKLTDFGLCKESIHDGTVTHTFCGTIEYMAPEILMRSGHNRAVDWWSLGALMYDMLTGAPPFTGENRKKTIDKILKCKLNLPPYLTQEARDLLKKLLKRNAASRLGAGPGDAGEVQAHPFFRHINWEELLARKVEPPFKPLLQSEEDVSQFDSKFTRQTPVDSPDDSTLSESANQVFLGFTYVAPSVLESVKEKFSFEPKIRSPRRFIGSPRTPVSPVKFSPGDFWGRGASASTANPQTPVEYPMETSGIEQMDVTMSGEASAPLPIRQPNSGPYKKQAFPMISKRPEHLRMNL
T1 sequence (O60674 whole entry): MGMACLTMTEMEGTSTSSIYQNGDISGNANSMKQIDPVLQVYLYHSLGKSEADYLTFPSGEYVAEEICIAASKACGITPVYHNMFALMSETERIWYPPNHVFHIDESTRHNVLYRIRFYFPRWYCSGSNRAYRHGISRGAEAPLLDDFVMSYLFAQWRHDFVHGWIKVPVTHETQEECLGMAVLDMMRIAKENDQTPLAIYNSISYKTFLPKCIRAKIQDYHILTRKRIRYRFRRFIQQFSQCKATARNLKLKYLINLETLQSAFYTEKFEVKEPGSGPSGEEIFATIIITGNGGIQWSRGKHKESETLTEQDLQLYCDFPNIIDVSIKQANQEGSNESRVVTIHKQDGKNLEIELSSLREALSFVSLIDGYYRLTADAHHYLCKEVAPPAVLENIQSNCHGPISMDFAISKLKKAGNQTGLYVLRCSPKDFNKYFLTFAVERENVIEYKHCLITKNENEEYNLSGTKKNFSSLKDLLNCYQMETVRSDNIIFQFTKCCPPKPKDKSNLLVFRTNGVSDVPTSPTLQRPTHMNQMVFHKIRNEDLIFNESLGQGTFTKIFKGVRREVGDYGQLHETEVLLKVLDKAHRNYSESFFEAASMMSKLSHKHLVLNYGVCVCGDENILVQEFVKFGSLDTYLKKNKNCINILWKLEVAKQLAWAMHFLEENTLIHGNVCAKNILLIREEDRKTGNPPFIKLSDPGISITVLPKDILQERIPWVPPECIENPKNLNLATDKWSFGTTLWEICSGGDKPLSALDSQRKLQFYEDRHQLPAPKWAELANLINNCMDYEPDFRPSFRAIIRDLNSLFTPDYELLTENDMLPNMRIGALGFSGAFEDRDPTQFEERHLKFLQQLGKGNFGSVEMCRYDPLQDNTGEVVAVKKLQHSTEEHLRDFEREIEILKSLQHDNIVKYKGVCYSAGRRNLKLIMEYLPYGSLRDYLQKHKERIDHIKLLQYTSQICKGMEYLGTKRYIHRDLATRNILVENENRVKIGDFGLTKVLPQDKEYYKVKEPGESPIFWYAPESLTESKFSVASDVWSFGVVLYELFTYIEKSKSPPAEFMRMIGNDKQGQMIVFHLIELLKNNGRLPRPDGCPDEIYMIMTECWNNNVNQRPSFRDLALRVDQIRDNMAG
T2 sequence (P49841 whole entry): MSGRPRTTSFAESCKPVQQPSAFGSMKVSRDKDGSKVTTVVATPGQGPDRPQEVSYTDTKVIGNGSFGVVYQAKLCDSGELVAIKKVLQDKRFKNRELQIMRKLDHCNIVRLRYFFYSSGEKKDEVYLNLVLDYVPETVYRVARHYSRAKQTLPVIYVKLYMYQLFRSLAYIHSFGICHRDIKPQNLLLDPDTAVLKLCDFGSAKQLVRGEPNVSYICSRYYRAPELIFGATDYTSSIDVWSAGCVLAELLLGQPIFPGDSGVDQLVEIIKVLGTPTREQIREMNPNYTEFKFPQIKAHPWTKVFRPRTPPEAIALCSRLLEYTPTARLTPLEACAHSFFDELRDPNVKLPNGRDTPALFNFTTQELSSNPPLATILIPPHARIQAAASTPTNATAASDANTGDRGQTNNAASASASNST
T4 sequence (P36888 27-993): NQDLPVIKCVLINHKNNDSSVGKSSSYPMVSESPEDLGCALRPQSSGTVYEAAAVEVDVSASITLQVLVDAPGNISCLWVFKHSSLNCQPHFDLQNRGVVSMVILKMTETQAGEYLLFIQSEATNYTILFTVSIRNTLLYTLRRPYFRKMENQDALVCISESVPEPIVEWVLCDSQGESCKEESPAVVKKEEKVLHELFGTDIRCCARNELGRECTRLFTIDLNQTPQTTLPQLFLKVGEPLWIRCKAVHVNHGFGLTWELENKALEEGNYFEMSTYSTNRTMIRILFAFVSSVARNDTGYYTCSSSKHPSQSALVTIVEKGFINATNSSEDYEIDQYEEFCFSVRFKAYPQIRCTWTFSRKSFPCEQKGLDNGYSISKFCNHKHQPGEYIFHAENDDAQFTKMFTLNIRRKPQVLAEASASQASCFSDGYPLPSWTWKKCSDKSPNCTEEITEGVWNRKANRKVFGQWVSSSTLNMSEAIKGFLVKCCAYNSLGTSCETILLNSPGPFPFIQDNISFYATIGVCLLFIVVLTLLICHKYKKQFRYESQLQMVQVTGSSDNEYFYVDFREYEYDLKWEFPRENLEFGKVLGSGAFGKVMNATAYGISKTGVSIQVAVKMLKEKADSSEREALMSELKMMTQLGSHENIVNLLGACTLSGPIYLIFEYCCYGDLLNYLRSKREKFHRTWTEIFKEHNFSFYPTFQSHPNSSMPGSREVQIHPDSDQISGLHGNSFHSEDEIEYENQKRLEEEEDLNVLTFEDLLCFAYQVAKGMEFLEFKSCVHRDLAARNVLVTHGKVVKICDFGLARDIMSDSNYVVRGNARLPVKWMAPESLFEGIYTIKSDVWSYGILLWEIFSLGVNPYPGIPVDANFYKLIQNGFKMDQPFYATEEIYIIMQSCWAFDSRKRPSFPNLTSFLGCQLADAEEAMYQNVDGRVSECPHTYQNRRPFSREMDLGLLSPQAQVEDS

Compound | IC50/EC50, Basal_Viability ATP RKO (assay number 29) (RKO) | IC50/EC50, hJAK2 LANCE (assay number 33) (hJAK2) | IC50/EC50, Hela CellCycMod PI 2N (assay number 14) (HeLa cells; 2N) | IC50/EC50, Hela CellCycMod PI 4N (assay number 16) (HeLa cells; 4N) | IC50/EC50, Hela CellCycMod PI Cell Number (assay number 18) (HeLa cells) | IC50/EC50, Hela CellCycMod PI MI (assay number 17) (HeLa cells; MI) | IC50/EC50, Hela CellCycMod PI S Phase (assay number 15) (HeLa cells) | IC50/EC50, hGSK3b LANCE (assay number 34) (hGSK3b) | IC50/EC50, hp70S6K1 LANCE (assay number 31) (hp70S6K1 (RPS6KB1)) | IC50/EC50, Basal_Viability ATP Colo 320 (assay number 27) (Colo320) | IC50/EC50, Basal_Viability ATP SNU-C1 (assay number 30) (SNU-C1) | IC50/EC50, Basal_Viability ATP HCT116 (assay number 25) (HCT116; basal) | IC50/EC50, GSK3b inh pretreated_Viability ATP HCT116 (assay number 26) [2] | IC50/EC50, Basal_Viability ATP SW480 (assay number 24) (SW480) | IC50/EC50, Basal_Viability ATP DLD-1 (assay number 23) (DLD-1) | IC50/EC50, hFLT3 LANCE (assay number 35) (hFLT3) | IC50/EC50, hKDR LANCE (assay number 32) (hKDR) | IC50/EC50, Basal_Viability ATP HT-29 (assay number 28) (HT-29) | further results
O=C(O)c1ccc(-n2nc(-c3ccccc3O)nc2-c2ccccc2O)cc1 [NCGC00263572-01] | – | – | – | – | – | – | – | – | – | – | – | – | – | – | – | – | – | – | Basal_Viability ATP RKO IC50/EC50 (RKO; assay number 29): 0.1001 µM; hJAK2 LANCE IC50/EC50 (hJAK2; assay number 33): 18.21 µM; VEGF_ADSC\ECFC Angio Hoechst NucArea IC50/EC50 [1]: > 10 µM; Hela CellCycMod PI 2N IC50/EC50 (HeLa cells; assay number 14, 2N): > 10 µM; Hela CellCycMod PI 4N IC50/EC50 (HeLa cells; assay number 16, 4N): > 10 µM; Hela CellCycMod PI MI IC50/EC50 (HeLa cells; assay number 17, MI): > 10 µM; Hela CellCycMod PI Cell Number IC50/EC50 (HeLa cells; assay number 18, cell number): 5.678 µM; hGSK3b LANCE IC50/EC50 (hGSK3b; assay number 34): > 20 µM; hp70S6K1 LANCE IC50/EC50 (hp70S6K1 (RPS6KB1); assay number 31): > 20 µM; Basal_Viability ATP Colo 320 IC50/EC50 (Colo320; assay number 27): 0.4085 µM; Basal_Viability ATP SNU-C1 IC50/EC50 (SNU-C1; assay number 30): 0.2328 µM; Basal_Viability ATP HCT116 IC50/EC50 (HCT116; assay number 25, basal): 0.4376 µM; GSK3b inh pretreated_Viability ATP HCT116 IC50/EC50 ([2]; assay number 26, GSK3b inhibitor pretreated): 0.2423 µM; Basal_Viability ATP SW480 IC50/EC50 (SW480; assay number 24): 0.0776 µM; Basal_Viability ATP DLD-1 IC50/EC50 (DLD-1; assay number 23): 0.6507 µM; hFLT3 LANCE IC50/EC50 (hFLT3; assay number 35): > 20 µM; hKDR LANCE IC50/EC50 (hKDR; assay number 32): > 20 µM; Basal_Viability ATP HT-29 IC50/EC50 (HT-29; assay number 28): 0.5159 µM; VEGF_ADSC\ECFC Angio CD31 TubeArea IC50/EC50 [3]: 2.0862 µM
O=c1[nH]c(=O)n([C@H]2C[C@H](O)[C@@H](CO)O2)cc1F [NCGC00023722-08] | 0.001 µM | > 20 µM | > 10 µM | > 10 µM | > 10 µM | > 10 µM | 0.1688 µM | > 20 µM | > 20 µM | > 20 µM | > 20 µM | 0.001 µM | 0.001 µM | > 20 µM | 0.001 µM | > 20 µM | > 20 µM | > 20 µM | IC50/EC50, VEGF_ADSC\ECFC Angio Hoechst NucArea (assay number 3) [1]: > 10 µM; IC50/EC50, VEGF_ADSC\ECFC Angio CD31 TubeArea (assay number 2) [3]: 0.0216 µM
COc1ccc(-c2nc3ccc(C4=NNC(=O)CC4C)cc3[nH]2)cc1 (stereo not shown) [Pimobendan] | – | – | – | – | – | – | – | – | – | – | – | – | – | – | – | – | – | – | EC50 (NCI-H716 cells): > 10 µM; IC50 (hJAK2; read-out: JAK2): > 20 µM; EC50 (HeLa cells; Homo sapiens, HeLa, IC50 / EC50, HeLa, read-out: CellCycle G2/M): > 10 µM; EC50 (INS-1E cells): > 10 µM; IC50 (hGSK3b; read-out: GSK3b): > 20 µM; IC50 (hp70S6K1 (RPS6KB1); read-out: p70S6K1): > 20 µM; IC50 (HCT116; Homo sapiens, HCT-116, basal, read-out: Basal_Viability ATP HCT116): 16 µM; IC50 ([2]; Homo sapiens, HCT-116, read-out: GSK3b inh pretreated_Viability ATP HCT116): > 20 µM; IC50 (SW480; Homo sapiens, SW480, basal, read-out: Basal_Viability ATP SW480): > 20 µM; IC50 (DLD-1; Homo sapiens, DLD-1, basal, read-out: Basal_Viability ATP DLD-1): > 20 µM; IC50 (hFLT3; read-out: FLT3): 5.13 µM; IC50 (hKDR; read-out: KDR): > 20 µM; IC50 ([3]; Homo sapiens, IC50 / EC50, endothelial tube area, ADSC/ECFC co-culture, read-out: Anti-Angiogenesis): 2890 nM
Cn1cnc([N+](=O)[O-])c1Sc1ncnc2nc[nH]c12 [NCGC00015060-18] | 2.661 µM | > 20 µM | > 10 µM | > 10 µM | > 10 µM | > 10 µM | > 10 µM | > 20 µM | > 20 µM | 10.3402 µM | > 20 µM | 0.2074 µM | 0.6232 µM | 9.4353 µM | 0.3635 µM | > 20 µM | > 20 µM | > 20 µM | –
